Source: US10792377B2, “Compounds and method for imaging cancer” (Vanderbilt University, priority 2017, dated 2020)
Like-named read-outs stand apart in the source and are kept apart here.

Experiments:
[1] = Fluorometry: extinction, quantum yield, fluorescence in DMSO/EtOH; assay type: physicochemical
Method: The TEMPO- and PROXYL-fluorocoxib probes are non-fluorescent (Φfl<0.3) in their non-trapped form, whereas fluorocoxib A or B are highly fluorescent (Φfl[…]) (FIG. 13). However, the absorbance and fluorescence of the TEMPO- and PROXYL-fluorocoxib probes increases in a time-dependent fashion when incubated in a DMSO/EtOH solution (FIGS. 14-15). Referring to FIG. 15, it is noted that at about 16 hours, fluorescence (ex 586 nm) read about 120,000 cps at 607 nm. Turning to FIG. 16, as compared to 5-ROX acid, which had extinction of 36/mM/cm at 580 nm and quantum yield of 0.94 at 604 nm, and fluorocoxib A, which had extinction of 45/mM/cm at 579 nm and quantum yield of 0.93 at 602 nm, fluorocoxib Q1 had extinction of less than 0.4/mM/cm at 586 nm and quantum yield of less than 0.36 at 607 nm. Without wishing to be bound by theory, it is believed that the time-dependent increase in fluorescence and measured fluorescence at 607 nm is the result of reduction/oxidation of fluorocoxib Q1 in the DMSO/EtOH solution (FIG. 16).
Fluorometry. Steady state fluorescence excitation and emission spectra were determined for each compound with a Spex 1681 Fluorolog spectrofluorometer, equipped with a 450 W xenon arc lamp. […]

[2] = biological target: T1, murine COX-2 (Mus musculus, UniProt Q05769); experiment: In vitro purified COX-2 inhibition assay (TLC, 14C-arachidonic acid); assay type: biochemical; settings: for COX-2 Selectivity Index (COX-1 IC50/COX-2 IC50): in vitro, purified enzymes
T1 sequence (Q05769 18-604): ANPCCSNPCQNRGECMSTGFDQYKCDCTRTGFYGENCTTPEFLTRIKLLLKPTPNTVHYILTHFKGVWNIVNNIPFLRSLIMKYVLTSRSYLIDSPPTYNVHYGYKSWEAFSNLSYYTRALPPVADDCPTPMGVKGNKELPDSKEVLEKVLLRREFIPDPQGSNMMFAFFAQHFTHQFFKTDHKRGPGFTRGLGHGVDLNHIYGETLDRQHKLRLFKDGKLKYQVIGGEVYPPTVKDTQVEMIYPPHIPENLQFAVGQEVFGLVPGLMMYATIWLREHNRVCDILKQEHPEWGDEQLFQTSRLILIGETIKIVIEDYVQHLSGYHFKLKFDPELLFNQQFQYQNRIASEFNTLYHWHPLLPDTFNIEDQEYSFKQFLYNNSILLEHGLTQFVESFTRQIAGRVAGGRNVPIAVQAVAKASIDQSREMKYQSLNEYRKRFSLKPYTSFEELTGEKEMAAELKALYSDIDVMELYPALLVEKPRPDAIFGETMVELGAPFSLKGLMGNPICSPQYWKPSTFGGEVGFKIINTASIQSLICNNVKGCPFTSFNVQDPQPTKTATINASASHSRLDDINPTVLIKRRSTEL
Method: (§1) The in vitro cyclooxygenase (ovine COX-1 or human COX-2) inhibitory activities of these probes were tested by a previously described TLC assay (FIGS. 19-21). Briefly, reaction mixtures of 200 μL consisted of hematin-reconstituted protein in 100 mM Tris-HCl, pH 8.0, 500 μM phenol, and [1-^14C]arachidonic acid (50 μM, about 55-57 mCi/mmol, Perkin Elmer).
Inhibition Assay Using Purified COX-1 and COX-2. Inhibition of purified ovine COX-1 or mouse COX-2 by test compounds was assayed by a previously described method, which quantifies the conversion of [1-^14C]arachidonic acid to [1-^14C]prostaglandin products. Reaction mixtures of 200 ∝L consisted of hematin-reconstituted protein in 100 mM Tris-HCl, pH 8.0, 500 μM phenol, and [1-^14C]arachidonic acid (50 μM, ˜55-57 mCi/mmol, Perkin Elmer). For the time-dependent inhibition assay, hematin-reconstituted COX-1 ([…]) was preincubated at 25° C. for 17 min and 37° C. for 3 min with varying inhibitor concentrations in dimethylsulfoxide followed by the addition of [1-^14C]arachidonic acid (50 μM) for 30 s at 37° C. Reactions were terminated by solvent extraction in diethyl ether:methanol:1 M citrate buffer, pH 4.0 (30:4:1). The phases were separated by centrifugation at 2000 g for 2 min, and the organic phase was spotted on a thin-layer chromatography plate (EMD Kieselgel 60, VWR). The plate was developed in ethyl acetate:methylene chloride:glacial AcOH (75:25:1) at 4° C. Radiolabeled products were quantified with a radioactivity scanner (Bioscan, Inc., Washington, D.C.).

[3] = biological target: T2, ovine COX-1 (Ovis aries, UniProt P05979); experiment: In vitro purified COX-1 inhibition assay (TLC, 14C-arachidonic acid); assay type: biochemical
T2 sequence (P05979 25-600): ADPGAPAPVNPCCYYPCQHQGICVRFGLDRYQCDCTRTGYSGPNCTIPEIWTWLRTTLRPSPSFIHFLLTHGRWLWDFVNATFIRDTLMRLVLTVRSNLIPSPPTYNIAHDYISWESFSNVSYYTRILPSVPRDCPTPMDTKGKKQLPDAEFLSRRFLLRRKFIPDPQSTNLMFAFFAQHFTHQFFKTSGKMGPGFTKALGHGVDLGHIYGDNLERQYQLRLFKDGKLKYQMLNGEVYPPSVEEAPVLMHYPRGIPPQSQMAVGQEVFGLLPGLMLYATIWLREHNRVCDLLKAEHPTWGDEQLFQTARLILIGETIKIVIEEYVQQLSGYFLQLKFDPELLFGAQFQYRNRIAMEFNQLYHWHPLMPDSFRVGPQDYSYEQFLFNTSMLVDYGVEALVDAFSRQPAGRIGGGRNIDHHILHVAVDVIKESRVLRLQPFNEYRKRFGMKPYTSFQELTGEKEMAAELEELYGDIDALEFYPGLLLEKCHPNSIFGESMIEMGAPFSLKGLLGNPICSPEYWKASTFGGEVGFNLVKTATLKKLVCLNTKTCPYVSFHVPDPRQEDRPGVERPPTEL
Method: as §1
Inhibition Assay Using Purified COX-1 and COX-2. Inhibition of purified ovine COX-1 or mouse COX-2 by test compounds was assayed by a previously described method, which quantifies the conversion of [1-^14C]arachidonic acid to [1-^14C]prostaglandin products. Reaction mixtures of 200 ∝L consisted of hematin-reconstituted protein in 100 mM Tris-HCl, pH 8.0, 500 μM phenol, and [1-^14C]arachidonic acid (50 μM, ˜55-57 mCi/mmol, Perkin Elmer). […] Reactions were terminated by solvent extraction in diethyl ether:methanol:1 M citrate buffer, pH 4.0 (30:4:1). The phases were separated by centrifugation at 2000 g for 2 min, and the organic phase was spotted on a thin-layer chromatography plate (EMD Kieselgel 60, VWR). The plate was developed in ethyl acetate:methylene chloride:glacial AcOH (75:25:1) at 4° C. Radiolabeled products were quantified with a radioactivity scanner (Bioscan, Inc., Washington, D.C.).

[4] = system: 4T1 orthotopic breast cancer xenografts; experiment: In vivo image-guidance of chemocoxib A delivery, orthotopic 4T1 breast cancer xenografts; settings: tumor homogenate, LC-MS, 49 h after CA-FQ-NPs (1 mg/kg CA, 1 mg/kg FQ, s.c.)
Method: To generate orthotopic breast cancer xenografts, the 4T1 tumor cells (1×10^6 in 200 μL sterile PBS) were injected into the inguinal mammary fat-pads of athymic Balb/C nu/nu female mice (4-6 weeks old, Jax Mice). Tumors were full-grown by 4-5 weeks (tumor volume=length×width^2×0.52).
The animals were dosed with CA-FQ-NPs in PBS (1 mg/kg CA, 1 mg/kg FQ, s.c.) and imaged on a Xenogen IVIS200 optical imaging instrument at 0.5 h, 1 h, 3 h, 6 h, 28 h, and 49 h post-injection. […] After in vivo imaging, the 49 h animals group was euthanized, and brain, muscle, tumor, liver, lung, and kidney tissues were collected (FIG. 32D).

[5] = biological target: T3, hCOX-2 in 1483 cells (Homo sapiens, UniProt P35354); experiment: Intact cell COX-2 inhibition assay in 1483 HNSCC cells; assay type: cell-based; settings: high throughput screening, intact cancer cells; read-out: COX-2 positive 1483 HNSCC cells IC50
T3 construct: cells that express high levels of COX-2 were selected; endogenous in cells; host or cells: 1483 human head and neck squamous cell carcinoma (HNSCC) cells
T3 sequence (P35354 18-604): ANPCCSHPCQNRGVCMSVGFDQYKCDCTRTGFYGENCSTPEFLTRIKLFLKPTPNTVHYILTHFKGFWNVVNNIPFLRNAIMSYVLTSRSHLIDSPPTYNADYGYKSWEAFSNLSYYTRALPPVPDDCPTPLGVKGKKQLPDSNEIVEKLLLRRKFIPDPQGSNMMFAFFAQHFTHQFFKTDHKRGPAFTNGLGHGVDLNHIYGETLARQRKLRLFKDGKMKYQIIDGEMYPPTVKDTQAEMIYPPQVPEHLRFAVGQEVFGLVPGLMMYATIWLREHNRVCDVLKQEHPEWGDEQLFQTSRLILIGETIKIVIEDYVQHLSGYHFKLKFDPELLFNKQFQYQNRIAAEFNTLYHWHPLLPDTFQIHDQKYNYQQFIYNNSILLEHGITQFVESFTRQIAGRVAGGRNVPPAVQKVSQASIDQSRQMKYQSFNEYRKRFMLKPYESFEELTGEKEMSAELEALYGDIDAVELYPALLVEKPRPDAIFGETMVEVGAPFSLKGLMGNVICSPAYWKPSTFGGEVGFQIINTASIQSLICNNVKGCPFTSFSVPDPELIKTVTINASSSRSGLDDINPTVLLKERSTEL
Method: Following the promising results from the purified enzyme assay, the ability of compound 1 to inhibit COX-2 in intact cells was examined using a previously reported method. 1483 human head and neck squamous cell carcinoma (1483 HNSCC) cells that express high levels of COX-2 were selected. […]
Cell Culture and In Vitro Intact Cell Metabolism Assay. Inhibition of COX-2 in intact cells by test compounds was assayed by a previously described method. Human 1483 head and neck squamous cell carcinoma (HNSCC) cells (passage 8-18, mycoplasma negative by a polymerase chain reaction detection method) were cultured in DMEM/F12+10% fetal bovine serum+Antibiotic/Antimycotic in 6-well plates to 60% confluence. […] Reactions were terminated and analyzed by thin layer chromatography as described above.

[6] = COX-2 IC50, in vitro purified cox assay
[7] = mCOX-2 IC50, purified murine COX-2 (63 nM), inhibitor 20 min, then 1-14C-AA (50 μM) 37° C. 30 s, duplicates

Row | SMILES | COX-2 Selectivity Index (COX-1 IC50/COX-2 IC50) [2] | IC50 [2, 7] [nM] | IC50 [3] [nM] | further results
1 | O=C(O)c1ccc(C(=O)[O-])c(C2=c3cc4c5c(c3Oc3c2cc2c6c3CCCN6CCC2)CCC[N+]=5CCC4)c1 [5-ROX acid] | – | – | – | extinction ([1]; at 580 nm (5-ROX acid), 579 nm (fluorocoxib A), 586 nm (fluorocoxib Q1)): 36 mM⁻¹ cm⁻¹; quantum yield ([1]; at 604 nm (5-ROX acid), 602 nm (fluorocoxib A), 607 nm (fluorocoxib Q1)): 0.94
2 | COc1ccc2c(c1)c(CC(=O)NCCCCNC(=O)c1ccc(C(=O)NC3CC(C)(C)N([O])C(C)(C)C3)c(C3=c4cc5c6c(c4Oc4c3cc3c7c4CCCN7CCC3)CCC[N+]=6CCC5)c1)c(C)n2C(=O)c1ccc(Cl)cc1 [Compound 2] | >75 | 330 | > 25000 | IC50 [2, 6]: 332 nM
3 | COc1ccc2c(c1)c(CC(=O)NCCCCNC(=O)c1ccc(C3=c4cc5c6c(c4Oc4c3cc3c7c4CCCN7CCC3)CCC[N+]=6CCC5)c(C(=O)Nc3ccc(C(=O)OC4CC(C)(C)N([O])C(C)(C)C4)cc3)c1)c(C)n2C(=O)c1ccc(Cl)cc1 [Compound 3] | >54 | – | > 25000 | IC50 [2, 6]: 460 nM
4 | COc1ccc2c(c1)c(CC(=O)NCCCCNC(=O)c1ccc(C3=c4cc5c6c(c4Oc4c3cc3c7c4CCCN7CCC3)CCC[N+]=6CCC5)c(C(=O)OC3CC(C)(C)N([O])C(C)(C)C3)c1)c(C)n2C(=O)c1ccc(Cl)cc1 [Compound 4] | >20 | 1240 | > 25000 | –
5 | COc1ccc2c(c1)c(CC(=O)NCCCCNC(=O)c1ccc(C3=c4cc5c6c(c4Oc4c3cc3c7c4CCCN7CCC3)CCC[N+]=6CCC5)c(C(=O)NCC3CC(C)(C)N([O])C3(C)C)c1)c(C)n2C(=O)c1ccc(Cl)cc1 (centres unmarked) [Compound 5] | >13 | 1800 | > 25000 | –
6 | COc1ccc2c(c1)c(CC(=O)NCCCCNC(=O)c1ccc(C(=O)[O-])c(C3=c4cc5c6c(c4Oc4c3cc3c7c4CCCN7CCC3)CCC[N+]=6CCC5)c1)c(C)n2C(=O)c1ccc(Cl)cc1 [Fluorocoxib B, reference compound] | >31 | – | – | IC50 ([2]; purified murine COX-2 (63 nM), inhibitor 20 min, then 1-14C-AA (50 μM) 37° C. 30 s, duplicates, read-out: mCOX-2 IC50): 800 nM; IC50 ([3]; purified ovine COX-1 (22.5 nM), inhibitor 20 min, then 1-14C-AA (50 μM) 37° C. 30 s, duplicates, read-out: oCOX-1 IC50): > 25000 nM
7 | COc1ccc2c(c1)c(CC(=O)NCCCCNC(=O)CCC(=O)O[C@H]1c3cc4c(cc3[C@@H](c3cc(OC)c(OC)c(OC)c3)[C@H]3C(=O)OC[C@@H]31)OCO4)c(C)n2C(=O)c1ccc(Cl)cc1 [chemocoxib A, reference compound] | – | – | – | level in tumor tissue [4]: 3.1 pmol/g tissue; IC50 [5]: 200 nM
